≈ marks a conversion by molar mass, not a printed value.
Assays:
[1] = Buffer/octanol partition coefficient, log D of the compound at pH 7.4 by shake flask method; type: physicochemical
[2] = Thermodynamic solubility of the compound in 0.1M aqueous phosphate buffer at pH 7.4 after 24 hrs by LC-UV analysis; type: physicochemical; conditions: read-out: Therm_solubility
[3] = Intrinsic clearance in rat hepatocytes assessed per million cells
[4] = Dissociation constant, pKa of the compound; type: physicochemical
[5] = target: Serine-protein kinase ATM (Homo sapiens, UniProt Q13315)
[6] = target: Serine/threonine-protein kinase ATR (Homo sapiens, UniProt Q13535)
[7] = Intrinsic clearance in human hepatocytes assessed per million cells
[8] = target: Voltage-gated inwardly rectifying potassium channel KCNH2 (Homo sapiens, UniProt Q12809); assay: Inhibition of human ERG by electrophysiology assay
[9] = Apparent permeability across apical to basolateral side in MDCK cells overexpressing MDR1; type: ADME, cell-based, Canis lupus familiaris; conditions: dog
[10] = Oral bioavailability in rat; type: ADME, organism-based; conditions: in vivo
[11] = Volume of distribution at steady state in rat; type: ADME, organism-based; conditions: in vivo, read-out: Vdss
in vivo [12] = conditions: rat
in vivo [13] = conditions: rat; remark: listed apart in the source
in vitro = conditions: dog, MDCK-MDR1
Description: Efflux ratio of apparent permeability across basolateral to apical over apical to basolateral side in MDCK cells overexpressing MDR1

[14] = Apparent permeability across apical to basolateral side in human Caco2 cells; type: ADME, cell-based; conditions: Caco-2

Serine/threonine-protein kinase ATR, sequence (Q13535 whole entry): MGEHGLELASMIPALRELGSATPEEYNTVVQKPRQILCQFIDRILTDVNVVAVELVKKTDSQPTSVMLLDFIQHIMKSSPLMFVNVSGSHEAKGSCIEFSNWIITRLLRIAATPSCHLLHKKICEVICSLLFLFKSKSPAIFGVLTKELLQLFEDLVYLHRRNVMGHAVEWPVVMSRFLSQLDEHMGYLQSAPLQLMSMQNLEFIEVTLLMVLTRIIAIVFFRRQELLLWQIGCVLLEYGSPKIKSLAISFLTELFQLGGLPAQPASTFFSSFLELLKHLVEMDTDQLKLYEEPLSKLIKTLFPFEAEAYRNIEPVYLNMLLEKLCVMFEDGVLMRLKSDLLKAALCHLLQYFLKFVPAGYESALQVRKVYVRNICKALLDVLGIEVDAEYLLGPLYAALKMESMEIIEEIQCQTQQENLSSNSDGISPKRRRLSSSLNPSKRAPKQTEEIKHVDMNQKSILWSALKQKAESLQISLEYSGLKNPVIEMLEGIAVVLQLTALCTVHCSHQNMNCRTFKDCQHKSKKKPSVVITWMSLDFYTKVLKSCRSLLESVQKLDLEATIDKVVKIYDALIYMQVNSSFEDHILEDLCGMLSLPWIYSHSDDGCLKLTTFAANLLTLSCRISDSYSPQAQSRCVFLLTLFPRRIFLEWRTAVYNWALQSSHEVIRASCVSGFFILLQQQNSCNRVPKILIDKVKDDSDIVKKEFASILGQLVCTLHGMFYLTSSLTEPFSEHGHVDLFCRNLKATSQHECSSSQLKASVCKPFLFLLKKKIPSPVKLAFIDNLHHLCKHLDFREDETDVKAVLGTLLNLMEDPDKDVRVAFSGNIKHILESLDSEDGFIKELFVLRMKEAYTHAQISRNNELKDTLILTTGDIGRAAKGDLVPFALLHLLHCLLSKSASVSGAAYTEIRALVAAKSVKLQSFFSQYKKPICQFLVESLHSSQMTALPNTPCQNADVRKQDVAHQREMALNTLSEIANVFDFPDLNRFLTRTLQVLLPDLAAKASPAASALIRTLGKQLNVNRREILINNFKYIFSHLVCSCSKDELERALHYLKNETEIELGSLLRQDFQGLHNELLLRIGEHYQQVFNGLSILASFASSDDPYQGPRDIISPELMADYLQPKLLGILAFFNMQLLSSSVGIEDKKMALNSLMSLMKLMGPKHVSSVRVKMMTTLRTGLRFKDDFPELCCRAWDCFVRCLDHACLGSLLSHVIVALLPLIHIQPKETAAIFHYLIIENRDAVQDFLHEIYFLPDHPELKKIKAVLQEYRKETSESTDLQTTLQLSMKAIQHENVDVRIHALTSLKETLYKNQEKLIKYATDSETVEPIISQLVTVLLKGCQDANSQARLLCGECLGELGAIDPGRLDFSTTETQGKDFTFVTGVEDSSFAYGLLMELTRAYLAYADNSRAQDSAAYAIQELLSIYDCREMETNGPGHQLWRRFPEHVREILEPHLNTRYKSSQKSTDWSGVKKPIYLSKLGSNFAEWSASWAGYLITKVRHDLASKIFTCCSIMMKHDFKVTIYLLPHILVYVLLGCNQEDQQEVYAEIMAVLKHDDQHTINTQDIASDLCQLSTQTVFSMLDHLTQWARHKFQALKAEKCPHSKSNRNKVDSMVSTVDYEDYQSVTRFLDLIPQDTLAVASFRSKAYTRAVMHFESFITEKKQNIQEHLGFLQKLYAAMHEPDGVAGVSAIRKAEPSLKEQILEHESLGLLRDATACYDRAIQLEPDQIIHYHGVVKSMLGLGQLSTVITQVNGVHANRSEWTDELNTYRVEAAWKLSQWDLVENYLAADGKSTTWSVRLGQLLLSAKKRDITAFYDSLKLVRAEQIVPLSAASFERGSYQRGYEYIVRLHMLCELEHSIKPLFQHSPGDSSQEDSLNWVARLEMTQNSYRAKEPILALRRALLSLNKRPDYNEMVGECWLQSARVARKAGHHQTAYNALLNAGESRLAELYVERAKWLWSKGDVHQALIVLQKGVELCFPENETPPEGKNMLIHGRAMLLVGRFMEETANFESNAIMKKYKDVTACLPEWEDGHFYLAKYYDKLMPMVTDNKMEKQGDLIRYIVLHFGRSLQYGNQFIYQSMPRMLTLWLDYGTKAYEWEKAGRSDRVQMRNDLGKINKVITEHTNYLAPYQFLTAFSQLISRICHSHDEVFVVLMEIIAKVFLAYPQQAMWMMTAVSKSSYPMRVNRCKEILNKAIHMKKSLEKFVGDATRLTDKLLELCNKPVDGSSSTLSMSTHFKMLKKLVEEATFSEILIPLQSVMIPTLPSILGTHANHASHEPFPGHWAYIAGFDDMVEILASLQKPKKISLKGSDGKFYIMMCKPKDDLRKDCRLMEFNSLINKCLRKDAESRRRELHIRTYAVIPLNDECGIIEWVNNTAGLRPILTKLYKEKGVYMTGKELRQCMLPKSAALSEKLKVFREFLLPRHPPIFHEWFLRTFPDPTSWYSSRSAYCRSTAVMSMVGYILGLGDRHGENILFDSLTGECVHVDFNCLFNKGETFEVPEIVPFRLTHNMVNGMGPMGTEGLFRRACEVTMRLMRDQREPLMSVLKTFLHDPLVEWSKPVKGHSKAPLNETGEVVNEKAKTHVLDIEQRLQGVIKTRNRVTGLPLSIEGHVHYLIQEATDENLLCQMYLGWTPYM
Voltage-gated inwardly rectifying potassium channel KCNH2, sequence (Q12809 whole entry): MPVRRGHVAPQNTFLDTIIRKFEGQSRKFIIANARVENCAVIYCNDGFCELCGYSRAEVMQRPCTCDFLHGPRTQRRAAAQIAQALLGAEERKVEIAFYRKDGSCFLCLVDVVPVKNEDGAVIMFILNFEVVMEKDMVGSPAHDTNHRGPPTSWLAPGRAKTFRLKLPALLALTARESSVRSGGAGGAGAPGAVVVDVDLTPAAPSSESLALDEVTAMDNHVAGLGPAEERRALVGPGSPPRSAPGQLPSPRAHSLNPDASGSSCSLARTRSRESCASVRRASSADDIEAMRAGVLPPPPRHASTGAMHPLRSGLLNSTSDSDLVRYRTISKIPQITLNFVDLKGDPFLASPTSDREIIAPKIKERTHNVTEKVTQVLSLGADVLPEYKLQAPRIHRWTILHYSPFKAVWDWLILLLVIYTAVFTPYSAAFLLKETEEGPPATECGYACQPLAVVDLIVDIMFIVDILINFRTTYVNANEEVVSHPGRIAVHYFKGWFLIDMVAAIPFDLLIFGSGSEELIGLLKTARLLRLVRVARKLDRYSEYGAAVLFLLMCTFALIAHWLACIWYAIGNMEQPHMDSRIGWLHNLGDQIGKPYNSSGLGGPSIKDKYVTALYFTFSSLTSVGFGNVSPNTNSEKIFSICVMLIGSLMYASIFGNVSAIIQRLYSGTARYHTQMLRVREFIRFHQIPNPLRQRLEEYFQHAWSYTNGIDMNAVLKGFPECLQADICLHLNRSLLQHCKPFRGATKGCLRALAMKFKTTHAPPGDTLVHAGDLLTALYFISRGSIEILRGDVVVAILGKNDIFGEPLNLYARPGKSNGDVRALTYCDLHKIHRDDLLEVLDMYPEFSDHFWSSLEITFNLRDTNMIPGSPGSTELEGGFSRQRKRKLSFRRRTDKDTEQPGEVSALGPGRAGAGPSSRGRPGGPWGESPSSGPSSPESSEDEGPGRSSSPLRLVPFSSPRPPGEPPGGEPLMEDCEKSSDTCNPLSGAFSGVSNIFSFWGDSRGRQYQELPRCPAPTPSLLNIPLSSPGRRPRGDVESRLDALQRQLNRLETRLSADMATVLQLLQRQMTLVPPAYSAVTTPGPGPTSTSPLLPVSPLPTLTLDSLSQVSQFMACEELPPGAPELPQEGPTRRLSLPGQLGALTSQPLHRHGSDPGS

logD [1] | solubility thermodynamic at 24 h [2] [µM] | hepatocyte CLint [3] [µL/min/1e6 cells] | pKa [4] | IC50 [5] [µM] | IC50 [6] [µM] | hepatocyte CLint [7] [µL/min/1e6 cells] | Papp A→B [9] [×10⁻⁶ cm/s] | bioavailability [10] [%] | Vd [11] [L/kg] | clearance (in vivo [12]) [mL/min/kg] | half-life (in vivo [13]) [h] | efflux ratio (in vitro) | Papp A→B [14] [×10⁻⁶ cm/s] | Compound | IC50 [8] [µM]
1.4 | 980 (≈ 494 µg/mL) | 28 | 6.7 | > 28 | > 30 | – | – | – | – | – | – | – | – | CO[C@H]1C[C@@H](n2c(=O)n(C)c3cnc4ccc(-c5ccc(OCCCN6CCOCC6)nc5)cc4c32)C1 | –
2.7 | 37 (≈ 15.6 µg/mL) | 4.5 | – | 0.1 | > 30 | 8.8 | 38 | > 100 | 0.98 | 22.5 | 2.7 | 0.4 | – | COCc1ccc(-c2cc3c(cc2F)ncc2c3n([C@H]3C[C@@H](OC)C3)c(=O)n2C)cn1 | 9
2.2 | 17 (≈ 6.13 µg/mL) | 9.4 | – | – | – | < 4.9 | 30 | – | – | – | – | – | 60 | Cn1c(=O)n(C2CCOCC2)c2c3cc(-c4cccnc4)ccc3ncc21 | 11
– | > 610 | – | – | – | – | < 4 | 4.8 | – | – | – | – | – | 15 | NC(=O)c1cnc2ccc(-c3cccnc3)cc2c1NC1CCOCC1 | –
